Measurements published in PubChem BioAssay AID248 (DTP/NCI, 2004).
Several values for one entry are separate records, joined by “and”; a condition that tells them apart may be missing. Equal values may be shown once. Inconclusive results and toxic doses are left out.

Test system: L1210 leukemia ip in BDF1 mice, survival T/C
Experiment: NCI In Vivo Anticancer Drug Screen. Data for tumor model L1210 Leukemia (intraperitoneal) in B6D2F1 (BDF1) mice
Settings: endpoint: mean survival time, higher = longer survival
Procedure, shortened: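 Tumor was transplanted into mice, which were then dosed with test compound or vehicle alone. Survival was recorded for each group, and the treated figure was expressed relative to the control figure.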

[1] = dose: 50.0 mg/kg/injection, schedule: Q01DX009 (ip), vehicle: saline with Tween-80
[2] = dose: 100.0 mg/kg/injection, schedule: Q01DX009 (ip), vehicle: saline with Tween-80
[3] = dose: 50.0 mg/kg/injection, schedule: Q01DX009 (ip), vehicle: saline
[4] = dose: 100.0 mg/kg/injection, schedule: Q01DX009 (ip), vehicle: saline
[5] = dose: 200.0 mg/kg/injection, schedule: Q01DX009 (ip), vehicle: saline
[6] = dose: 100.0 mg/kg/injection, schedule: Q01DX001 (ip), vehicle: saline
[7] = dose: 200.0 mg/kg/injection, schedule: Q01DX001 (ip), vehicle: saline
[8] = dose: 400.0 mg/kg/injection, schedule: Q01DX001 (ip), vehicle: saline
[9] = dose: 50.0 mg/kg/injection, schedule: Q01DX001 (ip), vehicle: carboxymethylcellulose (CMC)
[10] = dose: 100.0 mg/kg/injection, schedule: Q01DX001 (ip), vehicle: carboxymethylcellulose (CMC)
[11] = dose: 100.0 mg/kg/injection, schedule: Q04DX003 (ip), vehicle: Klucel (hydroxypropylcellulose) (HPC)
[12] = dose: 200.0 mg/kg/injection, schedule: Q01DX001 (ip), vehicle: carboxymethylcellulose (CMC)
[13] = dose: 200.0 mg/kg/injection, schedule: Q04DX003 (ip), vehicle: Klucel (hydroxypropylcellulose) (HPC)
[14] = dose: 400.0 mg/kg/injection, schedule: Q01DX001 (ip), vehicle: carboxymethylcellulose (CMC)
[15] = dose: 400.0 mg/kg/injection, schedule: Q04DX003 (ip), vehicle: Klucel (hydroxypropylcellulose) (HPC)
[16] = dose: 25.0 mg/kg/injection, schedule: Q01DX009 (ip), vehicle: Klucel (hydroxypropylcellulose) (HPC)
[17] = dose: 50.0 mg/kg/injection, schedule: Q01DX009 (ip), vehicle: Klucel (hydroxypropylcellulose) (HPC)
[18] = dose: 100.0 mg/kg/injection, schedule: Q01DX009 (ip), vehicle: Klucel (hydroxypropylcellulose) (HPC)
[19] = dose: 100.0 mg/kg/injection, schedule: Q04DX003 (ip), vehicle: saline
[20] = dose: 200.0 mg/kg/injection, schedule: Q01DX009 (ip), vehicle: Klucel (hydroxypropylcellulose) (HPC)

SMILES: CN(C)/N=N/c1nc[nH]c1C(=O)N/N=C/c1ccc(N(CCCl)CCCl)cc1
- T/C (dose: 100.0 mg/kg/injection, schedule: Q01DX001 (ip), vehicle: other): 100 % of control
- T/C (dose: 200.0 mg/kg/injection, schedule: Q01DX001 (ip), vehicle: other): 104 % of control
- T/C (dose: 400.0 mg/kg/injection, schedule: Q01DX001 (ip), vehicle: other): 98 % of control

SMILES: Cc1ccc(S(=O)(=O)NC(C)(C)CNc2ncnc(Cl)c2N)cc1
- T/C (dose: 9.5 mg/kg/injection, schedule: Q01DX001 (ip), vehicle: other): 101 % of control
- T/C (dose: 19.0 mg/kg/injection, schedule: Q01DX001 (ip), vehicle: other): 96 % of control

SMILES: COC(=O)C(CSCSC)NC(=O)Nc1ccc(F)cc1 (configuration not stated)
- T/C [1]: 98 % of control
- T/C [2]: 93 % of control
- T/C (dose: 100.0 mg/kg/injection, schedule: Q04DX003 (ip), vehicle: saline with Tween-80): 95 % of control
- T/C (dose: 200.0 mg/kg/injection, schedule: Q01DX009 (ip), vehicle: saline with Tween-80): 94 % of control
- T/C (dose: 200.0 mg/kg/injection, schedule: Q04DX003 (ip), vehicle: saline with Tween-80): 93 % of control
- T/C (dose: 400.0 mg/kg/injection, schedule: Q04DX003 (ip), vehicle: saline with Tween-80): 95 % of control

SMILES: C/C=C/C1CCCCC1
- T/C [3]: 97 % of control
- T/C [4]: 97 % of control
- T/C [5]: 93 % of control

SMILES: O=C1Nc2ccccc2C1=NC1CCCC1
- T/C [6]: 93 % of control
- T/C [7]: 98 % of control
- T/C [8]: 97 % of control

SMILES: Cc1ccccc1N=Nc1ccc(N(C)C)cc1
- T/C [9]: 93 % of control
- T/C [10]: 107 % of control
- T/C [11]: 95 % of control
- T/C [12]: 86 % of control
- T/C [13]: 95 % of control
- T/C [14]: 98 % of control
- T/C [15]: 91 % of control

SMILES: CCc1c(CNc2ccc(C(=O)NC(CC(=O)O)CC(=O)O)cc2)ccc2nc(N)nc(N)c12
- T/C (dose: 0.25 mg/kg/injection, schedule: Q01DX009 (ip), vehicle: saline): 114 % of control
- T/C (dose: 1.0 mg/kg/injection, schedule: Q01DX009 (ip), vehicle: saline): 103 % of control
- T/C (dose: 1.0 mg/kg/injection, schedule: Q04DX003 (ip), vehicle: saline): 118 % of control

SMILES: CC1CC(C)/C(=N/N(C)C)C(C(O)CC2CC(=O)NC(=O)C2)C1 (configuration not stated)
- T/C (dose: 77.8 mg/kg/injection, schedule: Q01DX Z (ip), vehicle: carboxymethylcellulose (CMC)): 106 % of control
- T/C (dose: 116.7 mg/kg/injection, schedule: Q01DX Z (ip), vehicle: carboxymethylcellulose (CMC)): 105 % of control
- T/C (dose: 262.5 mg/kg/injection, schedule: Q01DX Z (ip), vehicle: carboxymethylcellulose (CMC)): 119 % of control

SMILES: O=C(O)C1=C2C(=O)Nc3cccc(c32)C2(C1)C(=O)Nc1ccccc12 (configuration not stated)
- T/C (dose: 100.0 mg/kg/injection, schedule: Q04DX002 (ip), vehicle: saline with Tween-80): 103 % of control
- T/C (dose: 200.0 mg/kg/injection, schedule: Q04DX002 (ip), vehicle: saline with Tween-80): 103 % of control
- T/C (dose: 400.0 mg/kg/injection, schedule: Q04DX002 (ip), vehicle: saline with Tween-80): 103 % of control

SMILES: O=C(SCC(NSc1ccccc1[N+](=O)[O-])C(=O)O)c1ccccc1 (configuration not stated)
- T/C (dose: 12.0 mg/kg/injection, schedule: Q04DX003 (ip), vehicle: Klucel (hydroxypropylcellulose) (HPC)): 90 % of control
- T/C [16]: 95 % of control
- T/C (dose: 25.0 mg/kg/injection, schedule: Q04DX003 (ip), vehicle: Klucel (hydroxypropylcellulose) (HPC)): 95 % of control
- T/C [17]: 98 % of control
- T/C (dose: 50.0 mg/kg/injection, schedule: Q04DX003 (ip), vehicle: Klucel (hydroxypropylcellulose) (HPC)): 95 % of control
- T/C [18]: 98 % of control

SMILES: C=CCn1c2ccccc2c2c(C)c3cnccc3c(C)c21
- T/C (dose: 25.0 mg/kg/injection, schedule: Q01DX009 (ip), vehicle: saline with Tween-80): 97 % of control
- T/C (dose: 37.5 mg/kg/injection, schedule: Q04DX003 (ip), vehicle: saline): 111 % of control
- T/C [1]: 102 % of control
- T/C (dose: 50.0 mg/kg/injection, schedule: Q04DX003 (ip), vehicle: saline with Tween-80): 119 % of control
- T/C (dose: 75.0 mg/kg/injection, schedule: Q01DX009 (ip), vehicle: saline with Tween-80): 186 % of control
- T/C (dose: 75.0 mg/kg/injection, schedule: Q04DX003 (ip), vehicle: saline): 163 % of control
- T/C [2]: 111 % of control
- T/C (dose: 125.0 mg/kg/injection, schedule: Q04DX003 (ip), vehicle: saline with Tween-80): 184 % of control
- T/C (dose: 150.0 mg/kg/injection, schedule: Q01DX009 (ip), vehicle: saline with Tween-80): 172 % of control
- T/C (dose: 300.0 mg/kg/injection, schedule: Q04DX003 (ip), vehicle: saline): 156 % of control

SMILES: CC(=O)/C(C)=C/C(=O)O
- T/C (dose: 25.0 mg/kg/injection, schedule: Q01DX009 (ip), vehicle: saline): 95 % of control
- T/C (dose: 25.0 mg/kg/injection, schedule: Q04DX003 (ip), vehicle: saline): 97 % of control
- T/C [3]: 97 % of control
- T/C (dose: 50.0 mg/kg/injection, schedule: Q04DX003 (ip), vehicle: saline): 97 % of control
- T/C [4]: 105 % of control
- T/C [19]: 97 % of control and 108 % of control

SMILES: CNc1nc(NC)nc(NC)n1
- T/C (dose: 12.5 mg/kg/injection, schedule: Q01DX009 (ip), vehicle: Klucel (hydroxypropylcellulose) (HPC)): 102 % of control
- T/C [16]: 102 % of control
- T/C [17]: 98 % of control
- T/C [18]: 98 % of control
- T/C [20]: 100 % of control

SMILES: Cc1ccc(NC(=O)Oc2ccc(F)cc2)cc1NC(=O)Oc1ccc(F)cc1
- T/C (dose: 25.0 mg/kg/injection, schedule: Q01DX009 (ip), vehicle: other): 95 % of control
- T/C (dose: 50.0 mg/kg/injection, schedule: Q01DX009 (ip), vehicle: other): 95 % of control
- T/C (dose: 100.0 mg/kg/injection, schedule: Q01DX009 (ip), vehicle: other): 94 % of control and 100 % of control

SMILES: O=C(Nc1ccc(C(=O)O)cc1)Nc1ccccc1C(F)(F)F
- T/C (dose: 100.0 mg/kg/injection, schedule: Q01DX009 (ip), vehicle: gum acacia): 100 % of control
- T/C (dose: 200.0 mg/kg/injection, schedule: Q01DX009 (ip), vehicle: gum acacia): 102 % of control
- T/C (dose: 400.0 mg/kg/injection, schedule: Q01DX009 (ip), vehicle: gum acacia): 96 % of control

SMILES: Cc1nc2ccccc2nc1CI
- T/C (dose: 3.12 mg/kg/injection, schedule: Q01DX009 (ip), vehicle: acetone): 100 % of control
- T/C (dose: 6.25 mg/kg/injection, schedule: Q01DX009 (ip), vehicle: acetone): 104 % of control
- T/C (dose: 12.5 mg/kg/injection, schedule: Q01DX009 (ip), vehicle: acetone): 100 % of control
- T/C (dose: 12.5 mg/kg/injection, schedule: Q04DX003 (ip), vehicle: acetone): 113 % of control
- T/C (dose: 18.0 mg/kg/injection, schedule: Q01DX009 (ip), vehicle: saline with Tween-80): 92 % of control

SMILES: COC1OC(COC(=O)c2ccccc2)C(OS(=O)(=O)c2ccc(C)cc2)C1OCc1ccccc1 (configuration not stated)
- T/C [9]: 98 % of control
- T/C [10]: 93 % of control
- T/C [12]: 95 % of control
- T/C [14]: 95 % of control

SMILES: O=C=Nc1ccc(CCc2ccc(N=C=O)cc2)cc1
- T/C [4]: 88 % of control
- T/C [19]: 93 % of control
- T/C [5]: 87 % of control
- T/C (dose: 200.0 mg/kg/injection, schedule: Q04DX003 (ip), vehicle: saline): 102 % of control
- T/C (dose: 400.0 mg/kg/injection, schedule: Q04DX003 (ip), vehicle: saline): 106 % of control

SMILES: CN/N=C/c1cc(=O)[nH]c(=O)[nH]1
- T/C (dose: 50.0 mg/kg/injection, schedule: Q01DX001 (ip), vehicle: saline): 101 % of control
- T/C [6]: 104 % of control
- T/C [7]: 95 % of control

SMILES: COc1ccccc1NC(=O)Nc1ccccc1
- T/C [18]: 94 % of control and 102 % of control
- T/C [11]: 95 % of control
- T/C [20]: 96 % of control and 97 % of control
- T/C [13]: 93 % of control
- T/C (dose: 400.0 mg/kg/injection, schedule: Q01DX009 (ip), vehicle: Klucel (hydroxypropylcellulose) (HPC)): 96 % of control and 100 % of control
- T/C [15]: 86 % of control

SMILES: COc1ccc(C2(Br)C(=O)NN=C2C)cc1 (configuration not stated)
- T/C [6]: 95 % of control
- T/C [7]: 100 % of control
- T/C [8]: 95 % of control
